These results are taken from ChEMBL document CHEMBL1122865 (J Med Chem, 1985).

Assay [1] is filed under the species Oryctolagus cuniculus. Put plainly: The compound was tested for DA agonistic activity in the isolated perfused rabbit ear artery. It counts as functional. As to conditions: read-out: ED50 (the source's name).
Assay [2] has as its target D(1A) dopamine receptor (Rattus norvegicus) (UniProt P18901). As to the kind of experiment: Tested for its ability to inhibit rat caudate adenylate cyclase (Dopamine receptor D1) at 10 uM.
Assay [3] deals with D(2) dopamine receptor (Bos taurus) (UniProt P20288). Put plainly: Ability to inhibit specific [3H]spiroperidol binding to bovine anterior pituitary homogenate, at 10 uM.
Assay [4] shares this target. Put plainly: Compound was tested for its ability to inhibit specific [3H]spiroperidol binding to bovine anterior pituitary homogenate, at 10 uM.
The species named for assay [5] is Oryctolagus cuniculus. Put plainly: Compound was tested for DA agonistic activity in the isolated perfused rabbit ear artery. It is filed as functional. Particulars: read-out: ED50 (the source's name).
For assay [6], the target named is D(1A) dopamine receptor (Rattus norvegicus) (UniProt P18901). Put plainly: Tested for its ability to stimulate rat caudate adenylate cyclase (Dopamine receptor D1) at 10 uM.
Chain of D(1A) dopamine receptor (Rattus norvegicus) (P18901 whole entry): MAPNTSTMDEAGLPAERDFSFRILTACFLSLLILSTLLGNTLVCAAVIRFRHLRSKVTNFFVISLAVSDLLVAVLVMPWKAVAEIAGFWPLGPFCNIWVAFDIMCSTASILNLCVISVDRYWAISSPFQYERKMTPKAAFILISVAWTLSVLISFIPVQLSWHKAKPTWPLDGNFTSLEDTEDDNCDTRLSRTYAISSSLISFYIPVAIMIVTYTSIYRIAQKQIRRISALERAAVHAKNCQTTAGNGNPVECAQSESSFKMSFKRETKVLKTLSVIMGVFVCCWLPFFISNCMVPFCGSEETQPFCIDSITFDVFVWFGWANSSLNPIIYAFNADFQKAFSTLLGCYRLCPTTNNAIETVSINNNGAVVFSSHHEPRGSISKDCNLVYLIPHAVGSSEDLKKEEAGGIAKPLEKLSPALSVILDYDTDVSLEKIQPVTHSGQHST

Chain of D(2) dopamine receptor (Bos taurus) (P20288 whole entry): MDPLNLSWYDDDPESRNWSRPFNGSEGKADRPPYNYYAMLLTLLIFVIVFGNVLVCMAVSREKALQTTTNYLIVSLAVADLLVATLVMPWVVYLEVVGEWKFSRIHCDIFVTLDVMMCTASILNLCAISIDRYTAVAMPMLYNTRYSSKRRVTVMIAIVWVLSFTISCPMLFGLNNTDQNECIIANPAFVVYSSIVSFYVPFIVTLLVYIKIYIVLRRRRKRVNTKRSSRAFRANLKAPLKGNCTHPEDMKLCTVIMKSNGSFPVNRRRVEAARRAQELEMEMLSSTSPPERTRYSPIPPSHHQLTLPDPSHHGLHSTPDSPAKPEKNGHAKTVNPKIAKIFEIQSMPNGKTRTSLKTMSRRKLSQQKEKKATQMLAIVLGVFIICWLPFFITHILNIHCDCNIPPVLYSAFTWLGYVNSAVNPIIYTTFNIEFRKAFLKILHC

As to `NCCc1ccc(O)c(O)c1` [DOPAMINE], in the assay filed under Oryctolagus cuniculus [1], the EC50 came to 37 nM.
The inhibition is how much of the control response was suppressed. A high value points to a response far below the control. In assay [2], `NCCc1ccc(O)c2nc(O)ccc12` returned an inhibition of 1%. Besides, in assay [3], the Displacement stood at 56%. The same molecule returned a Kb in assay [4] of 4040 nM. Moreover, in the assay listed under Oryctolagus cuniculus [5], the EC50 was found to be 140 nM. The Stimulation in assay [6] worked out at 27%.
Consider `CCCN(CCc1ccc(O)cc1)CCc1ccc(O)c2nc(O)ccc12`, for which, in assay [2], the inhibition was 0%. In assay [3], the Displacement came to 78%. Moreover, the Kb in assay [4] was determined as 770 nM. The EC50 in the assay listed under Oryctolagus cuniculus [5] stood at 12.3 nM. Also, the Stimulation in assay [6] stood at 0%.
With `NC1CCc2cc(O)c(O)cc2C1` (stereo not given), in the assay filed under Oryctolagus cuniculus [1], the EC50 worked out at 4.6 nM.
The molecule `Oc1ccc(CCNCCc2ccc(O)c3nc(O)ccc23)cc1` returned an inhibition in assay [2] of 6%. Further, in assay [3], the Displacement worked out at 42%. For the same molecule, in the assay listed under Oryctolagus cuniculus [5], the EC50 came to 136 nM. Also, in assay [6], the Stimulation was found to be 2%.
In assay [2], `CCCN(CCC)CCc1ccc(OC)c2nc(O)ccc12` showed an inhibition of 0%. The molecule also returned a Displacement in assay [3] of 6%. Also, the Stimulation in assay [6] was found to be 3%.
`CCCN(CCC)CCc1ccc(O)c2[nH]c(=O)ccc12` yielded an inhibition in assay [2] of 0%. Also, the Displacement in assay [3] worked out at 19%. Moreover, in the assay filed under Oryctolagus cuniculus [5], the EC50 was 493 nM. Further, in assay [6], the Stimulation is 1%.
`COc1ccc(CCN)c2ccc(O)nc12` returned an inhibition in assay [2] of 1%. The Displacement in assay [3] worked out at 9%. Besides, the Stimulation in assay [6] came out at 3%.
`COc1ccc(CCNCCc2ccccc2)c2ccc(O)nc12` yielded an inhibition in assay [2] of 0%. For the same molecule, the Displacement in assay [3] stood at 9%. This molecule also registered a Stimulation in assay [6] of 0%.
`CCCN(CCC)CCc1ccc(O)c2c1CCC(=O)N2` came in with an inhibition in assay [2] of 0%. In assay [3], the Displacement worked out at 40%. Also, the Kb in assay [4] came to 15100 nM. Further, the EC50 in the assay filed under Oryctolagus cuniculus [5] came to 252 nM. Moreover, in assay [6], the Stimulation is 1%.
In turn, `CCCN(CCc1ccccc1)CCc1ccc(O)c2nc(O)ccc12` showed an inhibition in assay [2] of 6%. Moreover, the Displacement in assay [3] amounted to 72%. Further, the Kb in assay [4] was 2020 nM. Moreover, the EC50 in the assay filed under Oryctolagus cuniculus [5] was found to be 128 nM. The molecule further came in with a Stimulation in assay [6] of 0%.
On to `NCCc1cccc2nc(O)ccc12`, for which the inhibition in assay [2] is 5%. Also, the Displacement in assay [3] stood at 21%. The molecule further yielded a Stimulation in assay [6] of 1%.
`CCCN(CCC)CCc1cccc2nc(O)ccc12` had an inhibition in assay [2] of 0%. In assay [3], this molecule displayed a Displacement of 30%. In addition, the Stimulation in assay [6] turned out to be 4%.
